Laboratory results reported in ChEMBL document CHEMBL4680369, “Synthesis of HDAC Inhibitor Libraries via Microscale Workflow” (ACS Med Chem Lett, 2021).

Columns and labels:
Histone deacetylase 2 [1] = molecular target: T1, Histone deacetylase 2 (Homo sapiens, UniProt Q92769); test: Inhibition of HDAC2 (unknown origin) using compound purified by microgram-scale HPLC work-flow
Histone deacetylase 1 [2] = molecular target: T2, Histone deacetylase 1 (Homo sapiens, UniProt Q13547); test: Inhibition of HDAC1 (unknown origin) using compound purified by microgram-scale HPLC work-flow
T2 sequence (Q13547 whole entry): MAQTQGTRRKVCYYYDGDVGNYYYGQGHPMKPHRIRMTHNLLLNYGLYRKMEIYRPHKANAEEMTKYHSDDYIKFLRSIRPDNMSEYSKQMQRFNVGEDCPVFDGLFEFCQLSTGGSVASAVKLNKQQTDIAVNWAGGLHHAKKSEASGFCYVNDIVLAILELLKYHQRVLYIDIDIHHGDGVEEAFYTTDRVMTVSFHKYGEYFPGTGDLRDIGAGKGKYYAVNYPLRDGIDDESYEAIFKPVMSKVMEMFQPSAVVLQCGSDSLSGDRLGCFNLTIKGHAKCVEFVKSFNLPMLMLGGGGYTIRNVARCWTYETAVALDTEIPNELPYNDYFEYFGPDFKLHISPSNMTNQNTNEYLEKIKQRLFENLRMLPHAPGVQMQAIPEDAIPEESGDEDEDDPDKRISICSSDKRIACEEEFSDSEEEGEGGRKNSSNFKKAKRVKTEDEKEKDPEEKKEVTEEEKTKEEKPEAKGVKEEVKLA

Histone deacetylase 1 [3] = molecular target: T2, Histone deacetylase 1; test: Inhibition of HDAC1 (unknown origin) using compound purified by traditional preparative HPLC work-flow
Histone deacetylase 2 [4] = molecular target: T1, Histone deacetylase 2; test: Inhibition of HDAC2 (unknown origin) using compound purified by traditional preparative HPLC work-flow

T1 sequence (Q92769 whole entry): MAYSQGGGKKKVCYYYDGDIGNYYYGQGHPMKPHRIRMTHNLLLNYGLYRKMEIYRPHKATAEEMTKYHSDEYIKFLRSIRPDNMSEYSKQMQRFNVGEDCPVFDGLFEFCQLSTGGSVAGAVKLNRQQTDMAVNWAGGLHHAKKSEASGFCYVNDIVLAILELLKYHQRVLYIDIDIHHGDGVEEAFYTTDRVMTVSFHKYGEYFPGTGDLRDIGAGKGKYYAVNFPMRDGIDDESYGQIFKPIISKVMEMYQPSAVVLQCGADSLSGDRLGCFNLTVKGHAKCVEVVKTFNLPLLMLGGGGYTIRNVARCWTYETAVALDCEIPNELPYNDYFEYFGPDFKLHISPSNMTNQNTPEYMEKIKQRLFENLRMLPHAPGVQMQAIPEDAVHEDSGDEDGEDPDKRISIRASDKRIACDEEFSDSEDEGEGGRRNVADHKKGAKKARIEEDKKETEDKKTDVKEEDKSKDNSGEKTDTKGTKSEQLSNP

Compound | IC50 (Histone deacetylase 2 [1]) | IC50 (Histone deacetylase 1 [2]) | IC50 (Histone deacetylase 1 [3]) | IC50 (Histone deacetylase 2 [4])
CCC(=O)CCCCC[C@H](NC(=O)[C@H]1CC12CCN(CC)CC2)c1ncc(-c2c(F)cccc2OC)[nH]1 | 370 nM | 72 nM |  | 
CCC(=O)CCCCC[C@H](NC(=O)[C@H]1CC12CCN(CC)CC2)c1ncc(-c2ccc(C(=O)Nc3cc(C(F)(F)F)ccn3)cc2OC)[nH]1 | 87 nM | 119 nM |  | 
CCC(=O)CCCCC[C@H](NC(=O)[C@H]1CC12CCN(C)CC2)c1ncc(-c2ccn3ncnc3c2)[nH]1 | 249 nM | 44 nM | 70 nM | 350 nM
CCC(=O)CCCCC[C@H](NC(=O)[C@H]1CC12CCN(C)CC2)c1ncc(-c2ccc3[nH]c4ccccc4c3c2)[nH]1 |  |  |  | 1.1 nM
CCC(=O)CCCCC[C@H](NC(=O)[C@H]1CC12CCN(C)CC2)c1ncc(-c2cn(C)c3ccccc23)[nH]1 |  |  | 0.5 nM | 2.9 nM
CCC(=O)CCCCC[C@H](NC(=O)[C@H]1CC12CCN(C)CC2)c1ncc(-c2cnc3cccnc3c2)[nH]1 | 92 nM | 14 nM | 28 nM | 161 nM
CCC(=O)CCCCC[C@H](NC(=O)[C@H]1CC12CCN(CC)CC2)c1ncc(-c2cc(C(=O)OC)c(F)cc2OC)[nH]1 | 154 nM | 31 nM |  | 
CCC(=O)CCCCC[C@H](NC(=O)[C@H]1CC12CCN(C)CC2)c1ncc(-c2ccc(-n3nc(C)cc3C)cc2)[nH]1 | 70 nM | 12 nM | 14 nM | 64 nM
CCC(=O)CCCCC[C@H](NC(=O)[C@H]1CC12CCN(CC)CC2)c1ncc(-c2cc(C(C)C)c(F)cc2OC)[nH]1 | 279 nM | 63 nM |  | 
CCOc1ncc(-c2cnc([C@H](CCCCCC(=O)CC)NC(=O)[C@H]3CC34CCN(C)CC4)[nH]2)cn1 | 583 nM | 100 nM | 143 nM | 749 nM
CCC(=O)CCCCC[C@H](NC(=O)[C@H]1CC12CCN(C)CC2)c1ncc(C2=CC(=O)N(C)CC2)[nH]1 | 1660 nM | 302 nM | 343 nM | 1590 nM
CCC(=O)CCCCC[C@H](NC(=O)[C@H]1CC12CCN(C)CC2)c1ncc(-c2ccnc(N3CCOCC3)c2F)[nH]1 | 133 nM | 22 nM | 36 nM | 179 nM
CCC(=O)CCCCC[C@H](NC(=O)[C@H]1CC12CCN(CC)CC2)c1ncc(-c2c(F)cc(C(=O)Nc3cc(C(F)(F)F)ccn3)cc2OC)[nH]1 | 320 nM | 22 nM |  | 
CCC(=O)CCCCC[C@H](NC(=O)[C@H]1CC12CCN(C)CC2)c1ncc(-c2cnc(-n3cc(C)cn3)nc2)[nH]1 | 491 nM | 102 nM |  | 
CCC(=O)CCCCC[C@H](NC(=O)[C@H]1CC12CCN(CC)CC2)c1ncc(-c2c(OC)ccc(F)c2F)[nH]1 | 1550 nM | 609 nM |  | 

Continued, values first:

IC50 (Histone deacetylase 2 [1]) | IC50 (Histone deacetylase 1 [2]) | IC50 (Histone deacetylase 1 [3]) | IC50 (Histone deacetylase 2 [4]) | Compound
18 nM | 3.2 nM | 3.7 nM | 19 nM | CCC(=O)CCCCC[C@H](NC(=O)[C@H]1CC12CCN(C)CC2)c1ncc(-c2ccc(C)nc2OC)[nH]1
14 nM | 2.6 nM | 6.5 nM | 30 nM | CCC(=O)CCCCC[C@H](NC(=O)[C@H]1CC12CCN(C)CC2)c1ncc(-c2ccc(-c3cccnc3)nc2)[nH]1
39 nM | 6.9 nM |  |  | CCOC(=O)C1CC1c1ccc(OC)c(-c2cnc([C@H](CCCCCC(=O)CC)NC(=O)[C@H]3CC34CCN(CC)CC4)[nH]2)c1 (some centres not stated)
9.1 nM | 1.1 nM |  |  | CCOC(=O)c1cc2cc(OC)c(-c3cnc([C@H](CCCCCC(=O)CC)NC(=O)[C@H]4CC45CCN(CC)CC5)[nH]3)cc2o1
16 nM | 1.8 nM |  |  | CCC(=O)CCCCC[C@H](NC(=O)[C@H]1CC12CCN(CC)CC2)c1ncc(-c2cc(C(F)(F)F)ccc2OC)[nH]1
70 nM | 11 nM | 9.1 nM | 54 nM | CCC(=O)CCCCC[C@H](NC(=O)[C@H]1CC12CCN(C)CC2)c1ncc(-c2ccc(C(=O)NC3CCOC3)cc2)[nH]1 (some centres not stated)
43 nM | 7.8 nM |  |  | CCC(=O)CCCCC[C@H](NC(=O)[C@H]1CC12CCN(CC)CC2)c1ncc(-c2cc([N+](=O)[O-])ccc2OC)[nH]1
1.4 nM | 14 nM |  |  | CCC(=O)CCCCC[C@H](NC(=O)[C@H]1CC12CCN(CC)CC2)c1ncc(C2=CCC(C)N=C2OC)[nH]1 (some centres not stated)
63 nM | 13 nM |  |  | CCC(=O)CCCCC[C@H](NC(=O)[C@H]1CC12CCN(CC)CC2)c1ncc(-c2cccc(C(F)(F)F)c2OC)[nH]1
62 nM | 12 nM |  |  | CCC(=O)CCCCC[C@H](NC(=O)[C@H]1CC12CCN(CC)CC2)c1ncc(-c2cc(C#N)ccc2OC)[nH]1
